We go through 19 compounds from US20170275270A1, “BENZYL SUBSTITUTED INDAZOLES” (Bayer Pharma Aktiengesellschaft, priority 2014, published 2017).

Like-named read-outs stand apart in the source and are kept apart here.

Assay [1] has as its system HeLa human cervical tumor cells. In words: Proliferation assay (HeLa+Paclitaxel).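 Further: compounds at 0.001-10 µM added 4 h after paclitaxel, 92 h exposure, absorbance normalized to zero-point plate (0%) and untreated cells (100%), IC50 from 4-parameter fit.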 To be noted: read-out: Biological Assay 3: HeLa + Paclitaxel IC50, 3 nM paclitaxel, crystal violet.
The target in a further assay is Bub1 (Homo sapiens, UniProt O43683). In words: Formation-Assay: phosphorylation status of histone 2A by inhibition of kinase activity of Bub1. It counts as cell-based. Particulars: Biological Assay 4.1: H2A Formation IC50, co-treatment with Nocodazole 1 μg/ml, 16 h. A digest of the protocol: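 Cells co-treated 16 h with Nocodazole (1 μg/ml) and compound (3 nM–10 μM), then fixed and immunostained for phospho-H2A, read by infrared imaging (800 nm) normalised to cell stain (700 nm). Nocodazole-only set as 100%, untreated cells as 0%.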
Chain of Bub1 (O43683 whole entry): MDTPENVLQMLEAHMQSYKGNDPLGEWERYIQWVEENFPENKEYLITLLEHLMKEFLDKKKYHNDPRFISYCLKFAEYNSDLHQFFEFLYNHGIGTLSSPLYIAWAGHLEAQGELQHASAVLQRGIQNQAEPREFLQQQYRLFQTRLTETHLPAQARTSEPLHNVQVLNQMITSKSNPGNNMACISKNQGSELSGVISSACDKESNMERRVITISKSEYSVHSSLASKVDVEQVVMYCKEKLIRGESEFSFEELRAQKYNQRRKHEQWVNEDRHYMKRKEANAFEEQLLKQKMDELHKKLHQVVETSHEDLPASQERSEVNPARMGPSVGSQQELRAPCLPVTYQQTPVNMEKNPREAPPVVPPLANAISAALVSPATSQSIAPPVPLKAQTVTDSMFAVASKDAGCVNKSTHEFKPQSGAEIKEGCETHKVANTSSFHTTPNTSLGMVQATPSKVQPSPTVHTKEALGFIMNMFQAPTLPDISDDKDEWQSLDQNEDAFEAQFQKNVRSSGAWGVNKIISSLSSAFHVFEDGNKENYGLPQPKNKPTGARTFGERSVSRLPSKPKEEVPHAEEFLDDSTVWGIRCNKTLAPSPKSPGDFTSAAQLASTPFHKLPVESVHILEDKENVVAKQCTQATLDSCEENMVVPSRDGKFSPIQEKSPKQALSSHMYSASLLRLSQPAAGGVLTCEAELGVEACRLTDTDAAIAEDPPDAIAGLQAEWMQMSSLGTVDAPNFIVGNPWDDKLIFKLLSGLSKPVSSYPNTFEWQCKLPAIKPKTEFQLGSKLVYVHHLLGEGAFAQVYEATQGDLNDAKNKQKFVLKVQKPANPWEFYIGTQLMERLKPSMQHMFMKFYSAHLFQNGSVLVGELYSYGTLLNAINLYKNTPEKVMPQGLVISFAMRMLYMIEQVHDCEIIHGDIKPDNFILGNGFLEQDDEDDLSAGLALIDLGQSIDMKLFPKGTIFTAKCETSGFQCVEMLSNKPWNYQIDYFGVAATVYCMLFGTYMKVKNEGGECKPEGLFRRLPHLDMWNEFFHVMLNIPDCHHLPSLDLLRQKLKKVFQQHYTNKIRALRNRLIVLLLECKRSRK

A further assay concerns HeLa. In words: Proliferation assay (HeLa cell line).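 Further: crystal violet staining of cell number, scaled between a plate stained before dosing (0%) and cells left untreated (100%), compounds tested at 0.001-10 µM, IC50 via 4-parameter fit.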 Particulars: Homo sapiens, 96 h, read-out: Biological Assay 2: Proliferation assay (HeLa cell line) median IC50.
Assay [2] deals with T1, catalytic domain of human Bub1 (amino acids 704-1085) (Homo sapiens, UniProt O43683).
T1 construct: catalytic domain of human Bub1 (amino acids 704-1085); His6 (N); made in house; host or cells: Hi5 insect cells
T1 sequence (O43683 704-1085): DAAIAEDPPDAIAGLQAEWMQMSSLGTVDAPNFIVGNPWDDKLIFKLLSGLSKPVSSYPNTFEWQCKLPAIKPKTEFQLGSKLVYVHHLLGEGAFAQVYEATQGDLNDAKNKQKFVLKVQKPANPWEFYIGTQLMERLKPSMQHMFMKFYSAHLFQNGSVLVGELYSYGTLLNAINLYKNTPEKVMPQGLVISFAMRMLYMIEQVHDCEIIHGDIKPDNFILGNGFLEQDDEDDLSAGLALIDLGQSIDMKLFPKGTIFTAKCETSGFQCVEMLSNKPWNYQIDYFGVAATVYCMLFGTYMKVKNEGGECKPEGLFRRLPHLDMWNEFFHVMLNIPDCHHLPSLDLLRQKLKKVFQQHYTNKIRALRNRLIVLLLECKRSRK
The assay can be described thus: Bub1 kinase assay (TR-FRET). It counts as biochemical. A digest of the protocol: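 Compounds from 2 mM DMSO stocks, serially diluted 1:3.4, incubated with enzyme at 22° C for 60 min. Stopped with EDTA, then 1 h with streptavidin-XL665, anti-phosphoserine antibody and Eu-labelled anti-mouse IgG. Phosphorylated biotin-peptide read by TR-FRET; IC50 by 4-parameter logistic fit.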
On the technique in general: TR-FRET usually uses a lanthanide donor and a delayed reading to cut background.

The mark [3] stands for this setting: 10 μM ATP, read-out: Biological Assay 1: Bub1 kinase assay median IC50.
Setting [4] is: Biological Assay 1: Bub1 kinase assay median IC50, 10 μM ATP.

Consider `CCOc1cc(F)c(Cn2nc(-c3nc4c(c(Nc5ccnc(C)c5)n3)CCC4)c3ccccc32)c(F)c1` [Example 2-12-6, 2-[1-(4-ethoxy-2,6-difluorobenzyl)-1H-indazol-3-yl]-N-(2-methylpyridin-4-yl)-6,7-dihydro-5H-cyclopenta[d]pyrimidin-4-amine], for which the IC50 worked out at 330 nM in assay [1], 6 nM at Bub1, 1200 nM with HeLa and 11 nM in assay [2] (setting [3]).

For `CCOc1cc(F)c(Cn2nc(-c3nc(CN4CCOCC4)cc(Nc4ccncc4)n3)c3ccccc32)c(F)c1` [Example 2-12-12, 2-[1-(4-ethoxy-2,6-difluorobenzyl)-1H-indazol-3-yl]-6-(morpholin-4-ylmethyl)-N-(pyridin-4-yl)pyrimidin-4-amine], the IC50 in assay [1] is below 100 nM; on Bub1 it was 3.6 nM; in the assay with HeLa it was 3600 nM; in assay [2] (setting [3]), 6.8 nM.

For the compound `CCOc1cc(F)c(Cn2nc(-c3nc4c(c(Nc5ccncc5)n3)CCC4)c3ccccc32)c(F)c1` [Example 2-12-2, 2-[1-(4-ethoxy-2,6-difluorobenzyl)-1H-indazol-3-yl]-N-(pyridin-4-yl)-6,7-dihydro-5H-cyclopenta[d]pyrimidin-4-amine], the IC50 was determined as 390 nM in assay [1], 180 nM on Bub1, 2100 nM in the assay on HeLa and 12 nM in assay [2] (setting [3]).

For the compound `CCOc1cc(F)c(Cn2nc(-c3nc4c(c(Nc5ccnc(C)c5)n3)CN(CC)CC4)c3ccccc32)c(F)c1` [Example 2-15-2, 2-[1-(4-ethoxy-2,6-difluorobenzyl)-1H-indazol-3-yl]-6-ethyl-N-(2-methylpyridin-4-yl)-5,6,7,8-tetrahydropyrido[4,3-d]pyrimidin-4-amine], the IC50 is 45 nM in assay [1], 39 nM at Bub1, above 10000 nM in the assay with HeLa and 47 nM in assay [2] (setting [4]).

As to `Cc1nccc(Nc2nc(-c3nn(Cc4c(F)cc(OCCO)cc4F)c4ccccc34)ncc2C2CCN(CC3CC3)CC2)n1` [Example 2-6-23, 2-{4-[(3-{5-[1-(cyclopropyl-methyl)piperidin-4-yl]-4-[(2-methylpyrimidin-4-yl)amino]pyrimidin-2-yl}-1H-indazol-1-yl)methyl]-3,5-difluorophenoxy} ethanol], the IC50 in assay [1] was determined as 64 nM; at Bub1, 12 nM; in the assay on HeLa, 3000 nM; in assay [2] (setting [4]), 82 nM.

Take `COCCOc1cc(F)c(Cn2nc(-c3nc4c(c(Nc5ccnc(C)n5)n3)CC(C)(C)C4)c3ccccc32)c(F)c1` [Example 2-12-61, 2-{1-[2,6-difluoro-4-(2-methoxyethoxy)benzyl]-1H-indazol-3-yl}-6,6-dimethyl-N-(2-methylpyrimidin-4-yl)-6,7-dihydro-5H-cyclopenta[d]pyrimidin-4-amine]: the IC50 is 130 nM in assay [1], 2400 nM on Bub1, above 10000 nM with HeLa and 74 nM in assay [2] (setting [4]).

On to `CCOc1cc(F)c(Cn2nc(-c3ncc(C4CCN(CC(F)(F)F)CC4)c(Nc4ccncc4OC)n3)c3ccccc32)c(F)c1` [Example 2-20-4, 2-[1-(4-ethoxy-2,6-difluorobenzyl)-1H-indazol-3-yl]-N-(3-methoxypyridin-4-yl)-5-[1-(2,2,2-trifluoroethyl)piperidin-4-yl]pyrimidin-4-amine], for which the IC50 in assay [1] was found to be 66 nM; on Bub1, 31 nM; in the assay on HeLa, 1100 nM; in assay [2] (setting [4]) it was 70 nM.

Regarding `CCOc1cc(F)c(Cn2nc(-c3nc4c(c(Nc5cc(C)ncc5C)n3)CC(C)(C)C4)c3ccccc32)c(F)c1` [Example 2-12-59, N-(2,5-dimethylpyridin-4-yl)-2-[1-(4-ethoxy-2,6-difluorobenzyl)-1H-indazol-3-yl]-6,6-dimethyl-6,7-dihydro-5H-cyclopenta[d]pyrimidin-4-amine], the IC50 was 62 nM in assay [1], 120 nM at Bub1, above 10000 nM in the assay on HeLa and 22 nM in assay [2] (setting [3]).

For `CCOc1cc(F)c(Cn2nc(-c3nc4c(c(Nc5ccnc(OC)c5)n3)CCC4)c3ccccc32)c(F)c1` [Example 2-19-7, 2-[1-(4-ethoxy-2,6-difluorobenzyl)-1H-indazol-3-yl]-N-(2-methoxypyridin-4-yl)-6,7-dihydro-5H-cyclopenta[d]pyrimidin-4-amine], the IC50 in assay [1] was 540 nM; at Bub1, 21 nM; in the assay with HeLa it was above 10000 nM; in assay [2] (setting [3]), 57 nM.

Turning to `CCOc1cc(F)c(Cn2nc(-c3nc4c(c(Nc5cc(C)ncn5)n3)CCC4)c3ccccc32)c(F)c1` [Example 2-21-1, 2-[1-(4-ethoxy-2,6-difluorobenzyl)-1H-indazol-3-yl]-N-(6-methylpyrimidin-4-yl)-6,7-dihydro-5H-cyclopenta[d]pyrimidin-4-amine], the IC50 in assay [1] turned out to be 98 nM; on Bub1 it was 1900 nM; with HeLa, 6000 nM; in assay [2] (setting [3]), 25 nM.

Turning to `CCOc1cc(F)c(Cn2nc(-c3ncc(CCCOC)c(Nc4ccncc4C(N)=O)n3)c3ccccc32)c(F)c1` [Example 2-10-1, 4-({2-[1-(4-ethoxy-2,6-difluorobenzyl)-1H-indazol-3-yl]-5-(3-methoxypropyl)pyrimidin-4-yl}amino)nicotinamide], the IC50 in assay [1] was 1300 nM; on Bub1, 3400 nM; in the assay with HeLa, above 10000 nM; in assay [2] (setting [4]), 11 nM.

Consider `CCOc1cc(F)c(Cn2nc(-c3ncc(CCCCN4CCOCC4)c(Nc4ccncc4)n3)c3ccccc32)c(F)c1` [Example 2-2-12, 2-[1-(4-ethoxy-2,6-difluorobenzyl)-1H-indazol-3-yl]-5-[4-(morpholin-4-yl)butyl]-N-(pyridin-4-yl)pyrimidin-4-amine], for which the IC50 stood at 170 nM in assay [1], 800 nM on Bub1, 2300 nM in the assay with HeLa and 12 nM in assay [2] (setting [4]).

With `Cc1nccc(Nc2nc(-c3nn(Cc4c(F)cc(OCCO)cc4F)c4ccccc34)nc3c2CCC(C)(C)C3)n1` [Example 2-6-24, 2-{4-[(3-{7,7-dimethyl-4-[(2-methylpyrimidin-4-yl)amino]-5,6,7,8-tetrahydroquin-azolin-2-yl}-1H-indazol-1-yl)methyl]-3,5-difluorophenoxy} ethanol], the IC50 in assay [1] was 150 nM; at Bub1 it was 14 nM; in the assay with HeLa, above 10000 nM; in assay [2] (setting [4]) it was 120 nM.

As to `Cc1nccc(Nc2nc(-c3nn(Cc4c(F)cc(OCCO)cc4F)c4ccccc34)ncc2C2CCN(CC(F)(F)F)CC2)n1` [Example 2-6-16, 2-{3,5-difluoro-4-[(3-{4-[(2-methylpyrimidin-4-yl)amino]-5-[1-(2,2,2-trifluoroethyl)piperidin-4-yl]pyrimidin-2-yl}-1H-indazol-1-yl)methyl]phenoxy}ethanol], the IC50 in assay [1] was 60 nM; on Bub1, 0.56 nM; with HeLa, above 10000 nM; in assay [2] (setting [4]), 550 nM.

Turning to `CCOc1cc(F)c(Cn2nc(-c3ncc(C4CCNCC4)c(Nc4ccncc4)n3)c3ccccc32)c(F)c1` [Example 2-17-1, 2-[1-(4-ethoxy-2,6-difluorobenzyl)-1H-indazol-3-yl]-5-(piperidin-4-yl)-N-(pyridin-4-yl)pyrimidin-4-amine], the IC50 in assay [1] was 170 nM; on Bub1, 12 nM; in the assay with HeLa it was 1100 nM; in assay [2] (setting [4]) it was 6.1 nM.

For `CCOc1cc(F)c(Cn2nc(-c3nc(C)c(Cl)c(Nc4ccncc4)n3)c3ccccc32)c(F)c1` [Example 2-12-23, 5-chloro-2-[1-(4-ethoxy-2,6-difluorobenzyl)-1H-indazol-3-yl]-6-methyl-N-(pyridin-4-yl)pyrimidin-4-amine], the IC50 in assay [1] is 380 nM; on Bub1 it was 10 nM; with HeLa, above 10000 nM; in assay [2] (setting [3]), 23 nM.

Take `CCOc1cc(F)c(Cn2nc(-c3ncc(C4CCN(CC(F)(F)F)CC4)c(Nc4cc(C)ncc4C)n3)c3ccccc32)c(F)c1` [Example 2-20-6, N-(2,5-dimethylpyridin-4-yl)-2-[1-(4-ethoxy-2,6-difluorobenzyl)-1H-indazol-3-yl]-5-[1-(2,2,2-trifluoroethyl)piperidin-4-yl]pyrimidin-4-amine]: the IC50 came out at 130 nM in assay [1], 81 nM on Bub1, 3200 nM in the assay with HeLa and 260 nM in assay [2] (setting [4]).

For the compound `CCOc1cc(F)c(Cn2nc(-c3ncc(CCNCC(F)(F)F)c(Nc4ccncc4Cl)n3)c3ccccc32)c(F)c1` [Example 2-20-14, N-(3-chloropyridin-4-yl)-2-[1-(4-ethoxy-2,6-difluorobenzyl)-1H-indazol-3-yl]-5-{2-[(2,2,2-trifluoroethyl)amino]ethyl}pyrimidin-4-amine], the IC50 in assay [1] was 120 nM; at Bub1, 2.6 nM; in the assay on HeLa, above 10000 nM; in assay [2] (setting [4]) it was 48 nM.

`CCOc1cc(F)c(Cn2nc(-c3ncc(CCCN4CCOCC4)c(Nc4ccncc4C(F)(F)F)n3)c3ccccc32)c(F)c1` [Example 2-2-14, 2-[1-(4-ethoxy-2,6-difluorobenzyl)-1H-indazol-3-yl]-5-[3-(morpholin-4-yl)propyl]-N-[3-(trifluoromethyl)pyridin-4-yl]pyrimidin-4-amine]: the IC50 in assay [1] was 140 nM; on Bub1 it was 3900 nM; with HeLa it was 7800 nM; in assay [2] (setting [4]), 130 nM.
